Here are results for 18 compounds from PubChem BioAssay AID330 (DTP/NCI, 2004).

Where “and” joins values, the source holds several entries; their conditions need not be identical. Equal entries are not always repeated. Toxic doses and inconclusive results are not listed. Square brackets hold non-standard residues; d marks the D form. Peptide text beside a SMILES is read from it. * marks the point of attachment. ξ: configuration not given here. Ac5c = NC1(C(=O)O)CCCC1; Cbz = O=C(OCc1ccccc1)*; ξV = CC(C)C(N)C(=O)O

This experiment concerns P388 leukemia ip, CD2F1 mice, survival T/C. Nature of the experiment: NCI In Vivo Anticancer Drug Screen. Data for tumor model P388 Leukemia (intraperitoneal) in CD2F1 (CDF1) mice. Conditions: endpoint: median survival time, higher = longer survival. The gist of the method:
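Mice carrying the transplanted tumor received test compound or vehicle. Survival was recorded in each group, and the value is the treated-group measurement divided by that of the vehicle-treated control group.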

Where [1] appears, read: dose: 6.25 mg/kg/injection, schedule: Q01DX009 (ip), vehicle: distilled water + Tween-80.
The mark [2] stands for this setting: dose: 12.5 mg/kg/injection, schedule: Q01DX009 (ip), vehicle: distilled water + Tween-80.
The mark [3] stands for this setting: dose: 25.0 mg/kg/injection, schedule: Q01DX009 (ip), vehicle: distilled water + Tween-80.
Setting [4] is: dose: 50.0 mg/kg/injection, schedule: Q01DX009 (ip), vehicle: distilled water + Tween-80.
The mark [5] stands for this setting: dose: 100.0 mg/kg/injection, schedule: Q01DX009 (ip), vehicle: distilled water + Tween-80.
Where [6] appears, read: dose: 200.0 mg/kg/injection, schedule: Q01DX009 (ip), vehicle: distilled water + Tween-80.
Setting [7] is: dose: 50.0 mg/kg/injection, schedule: Q01DX009 (ip), vehicle: saline with Tween-80.
Where [8] appears, read: dose: 25.0 mg/kg/injection, schedule: Q01DX009 (ip), vehicle: Klucel (hydroxypropylcellulose) (HPC).
[9] abbreviates: dose: 50.0 mg/kg/injection, schedule: Q01DX009 (ip), vehicle: Klucel (hydroxypropylcellulose) (HPC).
The mark [10] stands for this setting: dose: 50.0 mg/kg/injection, schedule: Q01DX009 (ip), vehicle: saline.
The mark [11] stands for this setting: dose: 100.0 mg/kg/injection, schedule: Q01DX009 (ip), vehicle: saline.
The mark [12] stands for this setting: dose: 50.0 mg/kg/injection, schedule: Q01DX005 (ip), vehicle: saline with Tween-80.
[13] abbreviates: dose: 100.0 mg/kg/injection, schedule: Q01DX005 (ip), vehicle: saline with Tween-80.
The mark [14] stands for this setting: dose: 200.0 mg/kg/injection, schedule: Q01DX005 (ip), vehicle: saline with Tween-80.

As for `Cc1cc2c(cc1CC(=O)O)CC(=O)NC2`, the T/C by setting is: (dose: 1.56 mg/kg/injection, schedule: Q01DX009 (ip), vehicle: distilled water + Tween-80) 109 % of control; (dose: 3.13 mg/kg/injection, schedule: Q01DX009 (ip), vehicle: distilled water + Tween-80) 104 % of control; under setting [1], 123 % of control and 95 % of control; under setting [2], 101 % of control; under setting [3], 101 % of control and 96 % of control; under setting [4], 104 % of control and 96 % of control. Besides, the T/C is, setting by setting: under setting [5], 102 % of control and 95 % of control; under setting [6], 100 % of control; (dose: 400.0 mg/kg/injection, schedule: Q01DX009 (ip), vehicle: distilled water + Tween-80) 92 % of control.

As for `CNc1ccc([N+](=O)[O-])cc1C(=O)OC`, the T/C runs as follows: (dose: 12.5 mg/kg/injection, schedule: Q01DX009 (ip), vehicle: saline with Tween-80) 99 % of control; (dose: 25.0 mg/kg/injection, schedule: Q01DX009 (ip), vehicle: saline with Tween-80) 98 % of control; under setting [7], 102 % of control.

In the case of `CN(C)c1ccc(/C=C/c2ccnc3ccccc23)cc1N`, the T/C is, setting by setting: (dose: 6.25 mg/kg/injection, schedule: Q01DX009 (ip), vehicle: Klucel (hydroxypropylcellulose) (HPC)) 98 % of control; (dose: 12.5 mg/kg/injection, schedule: Q01DX009 (ip), vehicle: Klucel (hydroxypropylcellulose) (HPC)) 93 % of control; under setting [8], 90 % of control; under setting [9], 109 % of control.

As to `CC(C)CC(NC(=O)C(N)Cc1ccc(N(CCCl)CCCl)cc1)C(=O)O` (stereo unspecified), the T/C was 155 % of control and 172 % of control (dose: 3.7 mg/kg/injection, schedule: Q04DX003 (ip), vehicle: saline with Tween-80); 187 % of control and 203 % of control (dose: 8.4 mg/kg/injection, schedule: Q04DX003 (ip), vehicle: saline with Tween-80); 204 % of control and 272 % of control (dose: 12.6 mg/kg/injection, schedule: Q04DX003 (ip), vehicle: saline with Tween-80); 108 % of control and 118 % of control (dose: 18.9 mg/kg/injection, schedule: Q04DX003 (ip), vehicle: saline with Tween-80); 158 % of control (dose: 32.0 mg/kg/injection, schedule: Q04DX003 (ip), vehicle: saline with Tween-80); 179 % of control (dose: 42.6 mg/kg/injection, schedule: Q04DX003 (ip), vehicle: saline with Tween-80). Besides, the T/C reads like this: (dose: 64.0 mg/kg/injection, schedule: Q04DX003 (ip), vehicle: saline with Tween-80) 190 % of control and 198 % of control; (dose: 96.0 mg/kg/injection, schedule: Q04DX003 (ip), vehicle: saline with Tween-80) 243 % of control; (dose: 128.0 mg/kg/injection, schedule: Q04DX003 (ip), vehicle: saline with Tween-80) 88 % of control.

With `CC(CN(C)C)CN1c2ccccc2Sc2ccccc21` (stereo unspecified), the T/C (dose: 12.5 mg/kg/injection, schedule: Q04DX003 (ip), vehicle: saline with Tween-80) was 112 % of control; the T/C (dose: 25.0 mg/kg/injection, schedule: Q04DX003 (ip), vehicle: saline with Tween-80) was 115 % of control; the T/C (dose: 33.0 mg/kg/injection, schedule: Q04DX003 (ip), vehicle: saline with Tween-80) is 123 % of control; the T/C (dose: 50.0 mg/kg/injection, schedule: Q04DX003 (ip), vehicle: saline with Tween-80) is 117 % of control.

Consider `CC1NC(=O)N(Cc2ccccc2Cl)C1=O` (stereo unspecified), for which the T/C is, setting by setting: (dose: 50.0 mg/kg/injection, schedule: Q01DX005 (ip), vehicle: Klucel (hydroxypropylcellulose) (HPC)) 110 % of control; (dose: 100.0 mg/kg/injection, schedule: Q01DX005 (ip), vehicle: Klucel (hydroxypropylcellulose) (HPC)) 106 % of control; (dose: 200.0 mg/kg/injection, schedule: Q01DX005 (ip), vehicle: Klucel (hydroxypropylcellulose) (HPC)) 110 % of control.

As for `CC(=O)C(Cl)c1ccccc1Cl` (stereo unspecified), the T/C runs as follows: under setting [8], 111 % of control; under setting [9], 107 % of control and 113 % of control; (dose: 100.0 mg/kg/injection, schedule: Q01DX009 (ip), vehicle: Klucel (hydroxypropylcellulose) (HPC)) 109 % of control.

Consider `CCCCNP(=O)(N1CC1CC)N1CC1CC` (stereo unspecified), for which the T/C reads like this: under setting [10], 122 % of control; under setting [11], 150 % of control; (dose: 200.0 mg/kg/injection, schedule: Q01DX009 (ip), vehicle: saline) 104 % of control; (dose: 300.0 mg/kg/injection, schedule: Q04DX003 (ip), vehicle: saline) 195 % of control.

With `O=NNc1ncccn1`, the T/C reads like this: (dose: 3.12 mg/kg/injection, schedule: Q01DX009 (ip), vehicle: water) 96 % of control; (dose: 6.25 mg/kg/injection, schedule: Q01DX009 (ip), vehicle: water) 105 % of control; (dose: 12.5 mg/kg/injection, schedule: Q01DX009 (ip), vehicle: water) 93 % of control; (dose: 25.0 mg/kg/injection, schedule: Q01DX009 (ip), vehicle: water) 101 % of control; (dose: 50.0 mg/kg/injection, schedule: Q01DX009 (ip), vehicle: water) 102 % of control; (dose: 100.0 mg/kg/injection, schedule: Q01DX009 (ip), vehicle: water) 93 % of control.

As to `CC(C)(C)C1CO1` (stereo unspecified), the T/C is, setting by setting: (dose: 50.0 mg/kg/injection, schedule: Q01DX005 (ip), vehicle: saline) 103 % of control; (dose: 100.0 mg/kg/injection, schedule: Q01DX005 (ip), vehicle: saline) 108 % of control; (dose: 200.0 mg/kg/injection, schedule: Q01DX005 (ip), vehicle: saline) 110 % of control.

Turning to `Fc1cccc(NC(=S)SCc2ccc(Cl)cc2)c1`, the T/C is 102 % of control (dose: 25.0 mg/kg/injection, schedule: Q01DX009 (ip), vehicle: saline); 105 % of control under setting [10]; 105 % of control under setting [11]; 103 % of control (dose: 100.0 mg/kg/injection, schedule: Q01DX009 (ip), vehicle: suspension in saline).

Turning to `COc1ccccc1N1C(=S)N(c2cccc(Cl)c2Cl)C(=O)C(N=Nc2cccc(Cl)c2Cl)C1O` (stereo unspecified), the T/C by setting is: (dose: 100.0 mg/kg/injection, schedule: Q04DX003 (ip), vehicle: Klucel (hydroxypropylcellulose) (HPC)) 104 % of control; (dose: 200.0 mg/kg/injection, schedule: Q04DX003 (ip), vehicle: Klucel (hydroxypropylcellulose) (HPC)) 104 % of control; (dose: 400.0 mg/kg/injection, schedule: Q04DX003 (ip), vehicle: Klucel (hydroxypropylcellulose) (HPC)) 98 % of control.

In the case of `COCCC1OCC(CCl)O1` (stereo unspecified), the T/C was 104 % of control under setting [12], 99 % of control under setting [13] and 108 % of control under setting [14].

As for `COC(=O)/C(=C/C=C(c1ccccc1)c1ccccc1)N(C(C)=O)C(C)=O`, the T/C (dose: 100.0 mg/kg/injection, schedule: Q01DX001 (ip), vehicle: saline with Tween-80) is 104 % of control; the T/C (dose: 200.0 mg/kg/injection, schedule: Q01DX001 (ip), vehicle: saline with Tween-80) was 104 % of control; the T/C (dose: 400.0 mg/kg/injection, schedule: Q01DX001 (ip), vehicle: saline with Tween-80) was 96 % of control.

As to `CC(=O)[C@H]1CC[C@H]2[C@@H]3CCC4=CC(=O)[C@H](C)C[C@]4(C)[C@H]3C(=O)C[C@]12C`, the T/C runs as follows: (dose: 100.0 mg/kg/injection, schedule: Q04DX003 (ip), vehicle: saline with Tween-80) 100 % of control; (dose: 200.0 mg/kg/injection, schedule: Q04DX003 (ip), vehicle: saline with Tween-80) 95 % of control; (dose: 400.0 mg/kg/injection, schedule: Q04DX003 (ip), vehicle: saline with Tween-80) 95 % of control.

In the case of `Nc1nc2c(s1)CCC2`, the T/C is 118 % of control under setting [7]; 104 % of control (dose: 100.0 mg/kg/injection, schedule: Q01DX009 (ip), vehicle: saline with Tween-80); 93 % of control (dose: 200.0 mg/kg/injection, schedule: Q01DX009 (ip), vehicle: saline with Tween-80).

On to `CC(C)C(NC(=O)C1(NC(=O)OCc2ccccc2)CCCC1)C(=O)O` (stereo unspecified) (Cbz-[Ac5c]-[ξV]-OH), for which the T/C was 99 % of control under setting [12], 96 % of control under setting [13] and 99 % of control under setting [14].

On to `CC(=O)c1ccc2ccccc2c1OC(=O)c1cccnc1`, for which the T/C reads like this: under setting [1], 100 % of control; under setting [2], 104 % of control; under setting [3], 111 % of control and 94 % of control; under setting [4], 107 % of control and 111 % of control; under setting [5], 117 % of control and 119 % of control; under setting [6], 121 % of control.
